These results are taken from ChEMBL document CHEMBL5120916, “Structure-Activity Relationships and Antileukemia Effects of the Tricyclic Benzoic Acid FTO Inhibitors” (J Med Chem, 2022).

Activity calls are given as the source filed them. No cut-off for these calls is given here.

In general, IC50 refers to the concentration at which inhibition is half-maximal. The term ΔTm denotes the change in melting temperature against a reference sample.

Data set [1] has as its system NB-4. In words: Antiproliferative activity against human NB-4 cells assessed as reduction in cell viability at 10 uM administered as single dose measured after 48 hrs by CCK-8 assay. It is filed as functional, cell-based. For orientation: Tetrazolium dyes change colour on reduction, which living cells bring about.
Data set [2] deals with MONO-MAC-6. The data set is described as follows: Antiproliferative activity against human MONO-MAC-6 cells assessed as reduction in cell viability at 10 uM administered as single dose measured after 48 hrs by CCK-8 assay. It is filed as functional, cell-based.
For data set [3], the target named is T1, Alpha-ketoglutarate-dependent dioxygenase FTO (Homo sapiens, UniProt Q9C0B1). The data set is described as follows: Inhibition of N-terminal His-tagged human FTO expressed in Escherichia coli BL21(DE3) by PAGE based assay.
Target sequence in this assay (Q9C0B1 whole entry): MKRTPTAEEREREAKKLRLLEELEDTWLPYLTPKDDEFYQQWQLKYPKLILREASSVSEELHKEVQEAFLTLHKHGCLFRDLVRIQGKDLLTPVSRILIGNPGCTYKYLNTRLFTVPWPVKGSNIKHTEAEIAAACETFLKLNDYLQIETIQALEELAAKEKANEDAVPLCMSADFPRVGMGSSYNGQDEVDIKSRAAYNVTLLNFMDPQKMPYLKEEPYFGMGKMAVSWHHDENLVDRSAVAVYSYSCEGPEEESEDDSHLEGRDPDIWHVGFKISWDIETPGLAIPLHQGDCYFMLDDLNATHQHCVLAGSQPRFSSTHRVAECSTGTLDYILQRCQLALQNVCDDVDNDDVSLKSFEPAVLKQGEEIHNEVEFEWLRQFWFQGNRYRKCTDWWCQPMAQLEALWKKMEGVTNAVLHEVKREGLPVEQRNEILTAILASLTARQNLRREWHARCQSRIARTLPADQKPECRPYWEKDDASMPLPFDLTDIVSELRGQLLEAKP
Data set [4] deals with NB-4. The data set is described as follows: Antiproliferative activity against human NB-4 cells assessed as reduction in cell viability measured after 48 hrs by CCK-8 assay. As to conditions: NB-4, 48 h.
Data set [5] deals with MONO-MAC-6. In words: Antiproliferative activity against human MONO-MAC-6 cells assessed as reduction in cell viability measured after 48 hrs by CCK-8 assay. As to conditions: MONO-MAC-6, 48 h.
The test system of data set [6] is THP-1. In words: Antiproliferative activity against human THP-1 cells assessed as reduction in cell viability measured after 48 hrs by CCK-8 assay. To be noted: THP-1, 48 h.
The test system of data set [7] is HEL. The data set is described as follows: Antiproliferative activity against HEL cells assessed as reduction in cell viability measured after 48 hrs by CCK-8 assay. To be noted: Homo sapiens.
Data set [8] relates to NB-4. The data set is described as follows: Inhibition of colony formation in human NB-4 cells measured after 14 days by nitroblue tetrazolium chloride staining based soft agar assay. It counts as functional, cell-based. As to conditions: dose 5-15 µM, time 14.0 day, DDE = dose-dependent effect.
Data set [9] is described as follows: Acute toxicity in BALB/c mouse assessed as body weight loss at 20 mg/kg, ip administered once daily for 7 days. It is filed as organism-based. As to conditions: in vivo, 168 h, time 7 day.
Data set [10] relates to MONO-MAC-6. The data set is described as follows: Antitumor activity against human MONO-MAC-6 cells xenografted in busulfan treated NSG mouse assessed as increase in animal survial rate at 20 mg/kg, ip administered once daily for 22 days. It is filed as functional, organism-based. To be noted: time 22.0 day.
Data set [11] can be described thus: Toxicity in busulfan treated NSG mouse xenografted with human MONO-MAC-6 cells assessed as reduction in body weight at 20 mg/kg, ip administered once daily for 22 days. It is filed as organism-based. As to conditions: in vivo, 528 h, time 22 day. (Xenograft models place foreign cells or tissue in a host animal.)
The target of data set [12] is T1, Alpha-ketoglutarate-dependent dioxygenase FTO.
Target sequence in this assay (Q9C0B1 whole entry, looked up): as the sequence (Q9C0B1 whole entry) above
Description: Binding affinity to N-terminal His-tagged human FTO expressed in Escherichia coli BL21(DE3) assessed as change in melting temperature at 1:5 protein to compound ratio by fluorescence based thermal shift assay
For data set [13] the target is unchanged. The source holds these as a separate data set.
Target sequence in this assay (Q9C0B1 whole entry, looked up): as the sequence (Q9C0B1 whole entry) above
Description: Binding affinity to N-terminal His-tagged human FTO expressed in Escherichia coli BL21(DE3) assessed as change in melting temperature at 1:20 protein to compound ratio by fluorescence based thermal shift assay

On to `Cc1noc(C)c1-c1ccc(Nc2ccccc2C(=O)O)cc1`, for which the outcome in [1] and in data set [2] was Active.
In turn, `O=C(O)c1ccccc1Nc1c(Cl)cc(-c2ccn[nH]2)cc1Cl` registered a half-maximal inhibitory concentration (IC50) in [3] of 7.2 µM.
The same measure, in the same setting: the value for `Cc1noc(C)c1-c1cc(Cl)c(Nc2ccc(F)cc2C(=O)O)c(Cl)c1` was 1.1 µM.
`Cc1noc(C)c1-c1cc(F)c(Nc2ccccc2C(=O)O)c(Cl)c1`: the outcome in [1], in data set [2] and in data set [10] was Active. Moreover, the IC50 in data set [4] came out at 2.1 µM; in [5] it was 1.9 µM; in [6], 7.3 µM; in [7] it was 7.7 µM. The inhibition result in data set [8] is “Dde”. Besides, the Activity entry is given as “Non-Toxic” in data set [9] and “Toxic” in [11].
With `O=C(O)c1ccccc1Nc1c(Cl)cc(-c2ccncc2)cc1Cl`, the IC50 in data set [3] stood at 1.5 µM. Besides, the ΔTm in data set [12] was 0.5 °C; in [13] it was 1.5 °C.
`Cc1noc(C)c1-c1cc(Cl)c(Nc2cc(F)c(F)cc2C(=O)O)c(Cl)c1` came in with an IC50 in data set [3] of 3.4 µM.
In turn, `Cc1cc(-c2cc(Cl)c(Nc3ccccc3C(=O)O)c(Cl)c2)ccn1` came in with an IC50 in data set [3] of 6.5 µM.
Same read-out and setting: in the case of `Cc1noc(C)c1-c1cc(Cl)c(Nc2cccc(F)c2C(=O)O)c(Cl)c1` it was 1.6 µM; in that of `CCc1cc(-c2c(C)noc2C)cc(CC)c1Nc1ccccc1C(=O)O`, 1.4 µM; in that of `Cc1cc(-c2c(C)noc2C)cc(C)c1Nc1ccccc1C(=O)O`, 1.9 µM.
Turning to `O=C(O)c1ccccc1Nc1c(Cl)cc(-c2cc(O)cc(O)c2)cc1Cl`, the IC50 in data set [3] came to 2.4 µM.
With `COc1cc(-c2c(C)noc2C)cc(OC)c1Nc1ccccc1C(=O)O`, the result in data set [1] and in data set [2] was Active.
As for `COc1cccc(Nc2c(Cl)cc(-c3c(C)noc3C)cc2Cl)c1C(=O)O`, the IC50 in data set [3] turned out to be 2.2 µM.
On the same count and under the same terms, the value for `O=C(O)c1ccccc1Nc1c(Cl)cc(-c2cnoc2)cc1Cl` was 1.7 µM.
